Where a SMILES comes first, the peptide text is derived from it. Bridges are numbered along the chain shown (N, C = ends). Roman numbers before positions name the chains, in order. [ ]: non-standard residue; d: D form. The star is where a group is joined. 5TAMRA = CN(C)c1ccc2c(c1)Oc1cc(N(C)C)ccc1C21OC(=O)c2cc(C(=O)*)ccc21; Cha = N[C@@H](CC1CCCCC1)C(=O)O
assay: Drug localization in mitochondria of human HeLa cells at EC50 incubated for 3 hrs by fluorescence based assay; type: ADME

Structure (SMILES)	Drug uptake [%]
CC(=O)N[C@@H](CC(C)C)C(=O)N[C@H]1CSSC[C@@H](C(=O)N[C@@H](CCCNC(=N)N)C(N)=O)NC(=O)[C@H](CC2CCCCC2)NC(=O)[C@H](CCCNC(=N)N)NC(=O)[C@H](CCCNC(=N)N)NC(=O)[C@H](CC(C)C)NC(=O)[C@H](CC2CCCCC2)NC(=O)[C@H](CCCNC(=N)N)NC(=O)[C@@H](NC(=O)[C@H](CC(C)C)NC(=O)c2ccc3c(c2)C(=O)OC32c3ccc(N(C)C)cc3Oc3cc(N(C)C)ccc32)CSSC[C@@H](C(=O)N[C@@H](CCCNC(=N)N)C(N)=O)NC(=O)[C@H](CC2CCCCC2)NC(=O)[C@H](CCCNC(=N)N)NC(=O)[C@H](CCCNC(=N)N)NC(=O)[C@H](CC(C)C)NC(=O)[C@H](CC2CCCCC2)NC(=O)[C@H](CCCNC(=N)N)NC1=O (I: Ac-LCR[Cha]LRR[Cha]CR-NH2 / II: 5TAMRA-LCR[Cha]LRR[Cha]CR-NH2; disulfide I:2-II:9, I:9-II:2)	53
CC(=O)N[C@@H](CC1CCCCC1)C(=O)N[C@H]1CSSC[C@@H](C(=O)N[C@@H](CCCNC(=N)N)C(N)=O)NC(=O)[C@H](CC2CCCCC2)NC(=O)[C@H](CCCNC(=N)N)NC(=O)[C@H](CCCNC(=N)N)NC(=O)[C@H](CC(C)C)NC(=O)[C@H](CC(C)C)NC(=O)[C@H](CCCNC(=N)N)NC(=O)[C@@H](NC(=O)[C@H](CC2CCCCC2)NC(=O)c2ccc3c(c2)C(=O)OC32c3ccc(N(C)C)cc3Oc3cc(N(C)C)ccc32)CSSC[C@@H](C(=O)N[C@@H](CCCNC(=N)N)C(N)=O)NC(=O)[C@H](CC2CCCCC2)NC(=O)[C@H](CCCNC(=N)N)NC(=O)[C@H](CCCNC(=N)N)NC(=O)[C@H](CC(C)C)NC(=O)[C@H](CC(C)C)NC(=O)[C@H](CCCNC(=N)N)NC1=O (I: Ac-[Cha]CRLLRR[Cha]CR-NH2 / II: 5TAMRA-[Cha]CRLLRR[Cha]CR-NH2; disulfide I:2-II:9, I:9-II:2)	53
CC(=O)N[C@@H](CC1CCCCC1)C(=O)N[C@H]1CSSC[C@@H](C(=O)N[C@@H](CCCNC(=N)N)C(N)=O)NC(=O)[C@H](CC(C)C)NC(=O)[C@H](CCCNC(=N)N)NC(=O)[C@H](CCCNC(=N)N)NC(=O)[C@H](CC(C)C)NC(=O)[C@H](CC2CCCCC2)NC(=O)[C@H](CCCNC(=N)N)NC(=O)[C@@H](NC(=O)[C@H](CC2CCCCC2)NC(=O)c2ccc3c(c2)C(=O)OC32c3ccc(N(C)C)cc3Oc3cc(N(C)C)ccc32)CSSC[C@@H](C(=O)N[C@@H](CCCNC(=N)N)C(N)=O)NC(=O)[C@H](CC(C)C)NC(=O)[C@H](CCCNC(=N)N)NC(=O)[C@H](CCCNC(=N)N)NC(=O)[C@H](CC(C)C)NC(=O)[C@H](CC2CCCCC2)NC(=O)[C@H](CCCNC(=N)N)NC1=O (I: Ac-[Cha]CR[Cha]LRRLCR-NH2 / II: 5TAMRA-[Cha]CR[Cha]LRRLCR-NH2; disulfide I:2-II:9, I:9-II:2)	53
CC(=O)N[C@@H](CC(C)C)C(=O)N[C@H]1CSSC[C@@H](C(=O)N[C@@H](CCCNC(=N)N)C(N)=O)NC(=O)[C@H](CC2CCCCC2)NC(=O)[C@H](CCCNC(=N)N)NC(=O)[C@H](CCCNC(=N)N)NC(=O)[C@H](CC2CCCCC2)NC(=O)[C@H](CC2CCCCC2)NC(=O)[C@H](CCCNC(=N)N)NC(=O)[C@@H](NC(=O)[C@H](CC(C)C)NC(=O)c2ccc3c(c2)C(=O)OC32c3ccc(N(C)C)cc3Oc3cc(N(C)C)ccc32)CSSC[C@@H](C(=O)N[C@@H](CCCNC(=N)N)C(N)=O)NC(=O)[C@H](CC2CCCCC2)NC(=O)[C@H](CCCNC(=N)N)NC(=O)[C@H](CCCNC(=N)N)NC(=O)[C@H](CC2CCCCC2)NC(=O)[C@H](CC2CCCCC2)NC(=O)[C@H](CCCNC(=N)N)NC1=O (I: Ac-LCR[Cha][Cha]RR[Cha]CR-NH2 / II: 5TAMRA-LCR[Cha][Cha]RR[Cha]CR-NH2; disulfide I:2-II:9, I:9-II:2)	53
CC(=O)N[C@@H](CC1CCCCC1)C(=O)N[C@H]1CSSC[C@@H](C(=O)N[C@@H](CCCNC(=N)N)C(N)=O)NC(=O)[C@H](CC2CCCCC2)NC(=O)[C@H](CCCNC(=N)N)NC(=O)[C@H](CCCNC(=N)N)NC(=O)[C@H](CC2CCCCC2)NC(=O)[C@H](CC2CCCCC2)NC(=O)[C@H](CCCNC(=N)N)NC(=O)[C@@H](NC(=O)[C@H](CC2CCCCC2)NC(=O)c2ccc3c(c2)C(=O)OC32c3ccc(N(C)C)cc3Oc3cc(N(C)C)ccc32)CSSC[C@@H](C(=O)N[C@@H](CCCNC(=N)N)C(N)=O)NC(=O)[C@H](CC2CCCCC2)NC(=O)[C@H](CCCNC(=N)N)NC(=O)[C@H](CCCNC(=N)N)NC(=O)[C@H](CC2CCCCC2)NC(=O)[C@H](CC2CCCCC2)NC(=O)[C@H](CCCNC(=N)N)NC1=O (I: Ac-[Cha]CR[Cha][Cha]RR[Cha]CR-NH2 / II: 5TAMRA-[Cha]CR[Cha][Cha]RR[Cha]CR-NH2; disulfide I:2-II:9, I:9-II:2)	53
CC(=O)N[C@@H](CC1CCCCC1)C(=O)N[C@H]1CSSC[C@@H](C(=O)N[C@@H](CCCNC(=N)N)C(N)=O)NC(=O)[C@H](CC(C)C)NC(=O)[C@H](CCCNC(=N)N)NC(=O)[C@H](CCCNC(=N)N)NC(=O)[C@H](CC2CCCCC2)NC(=O)[C@H](CC(C)C)NC(=O)[C@H](CCCNC(=N)N)NC(=O)[C@@H](NC(=O)[C@H](CC2CCCCC2)NC(=O)c2ccc3c(c2)C(=O)OC32c3ccc(N(C)C)cc3Oc3cc(N(C)C)ccc32)CSSC[C@@H](C(=O)N[C@@H](CCCNC(=N)N)C(N)=O)NC(=O)[C@H](CC(C)C)NC(=O)[C@H](CCCNC(=N)N)NC(=O)[C@H](CCCNC(=N)N)NC(=O)[C@H](CC2CCCCC2)NC(=O)[C@H](CC(C)C)NC(=O)[C@H](CCCNC(=N)N)NC1=O (I: Ac-[Cha]CRL[Cha]RRLCR-NH2 / II: 5TAMRA-[Cha]CRL[Cha]RRLCR-NH2; disulfide I:2-II:9, I:9-II:2)	53
CC(=O)N[C@@H](CC1CCCCC1)C(=O)N[C@H]1CSSC[C@@H](C(=O)N[C@@H](CCCNC(=N)N)C(N)=O)NC(=O)[C@H](CC(C)C)NC(=O)[C@H](CCCNC(=N)N)NC(=O)[C@H](CCCNC(=N)N)NC(=O)[C@H](CC(C)C)NC(=O)[C@H](CC(C)C)NC(=O)[C@H](CCCNC(=N)N)NC(=O)[C@@H](NC(=O)[C@H](CC2CCCCC2)NC(=O)c2ccc3c(c2)C(=O)OC32c3ccc(N(C)C)cc3Oc3cc(N(C)C)ccc32)CSSC[C@@H](C(=O)N[C@@H](CCCNC(=N)N)C(N)=O)NC(=O)[C@H](CC(C)C)NC(=O)[C@H](CCCNC(=N)N)NC(=O)[C@H](CCCNC(=N)N)NC(=O)[C@H](CC(C)C)NC(=O)[C@H](CC(C)C)NC(=O)[C@H](CCCNC(=N)N)NC1=O (I: Ac-[Cha]CRLLRRLCR-NH2 / II: 5TAMRA-[Cha]CRLLRRLCR-NH2; disulfide I:2-II:9, I:9-II:2)	53
CC(=O)N[C@@H](CC(C)C)C(=O)N[C@H]1CSSC[C@@H](C(=O)N[C@@H](CCCNC(=N)N)C(N)=O)NC(=O)[C@H](CC(C)C)NC(=O)[C@H](CCCNC(=N)N)NC(=O)[C@H](CCCNC(=N)N)NC(=O)[C@H](CC2CCCCC2)NC(=O)[C@H](CC(C)C)NC(=O)[C@H](CCCNC(=N)N)NC(=O)[C@@H](NC(=O)[C@H](CC(C)C)NC(=O)c2ccc3c(c2)C(=O)OC32c3ccc(N(C)C)cc3Oc3cc(N(C)C)ccc32)CSSC[C@@H](C(=O)N[C@@H](CCCNC(=N)N)C(N)=O)NC(=O)[C@H](CC(C)C)NC(=O)[C@H](CCCNC(=N)N)NC(=O)[C@H](CCCNC(=N)N)NC(=O)[C@H](CC2CCCCC2)NC(=O)[C@H](CC(C)C)NC(=O)[C@H](CCCNC(=N)N)NC1=O (I: Ac-LCRL[Cha]RRLCR-NH2 / II: 5TAMRA-LCRL[Cha]RRLCR-NH2; disulfide I:2-II:9, I:9-II:2)	53

Source: ChEMBL document CHEMBL5634162, “Cyclohexylalanine-Containing α-Helical Amphipathic Peptide Targets Cardiolipin, Rescuing Mitochondrial Dysfunction in Kidney Injury” (J Med Chem, 2024)
